Ends that are not written are not given here.
Tested on: Male SD rats
Test: Measurement of food intake after intravenous administration
Type: in vivo
Details: test conditions not stated for this peptide
Protocol: Male SD rats (Sprague-Dawley, body weight of 275±25 g) were housed and fed in 45×23×15-cm APECR cages, five rats per cage. The rats were acclimated for 1 week or more on a 12-h light/12-h dark cycle at a room temperature of 22 to 24° C. and a humidity of 60 to 80% with free access to food and water before the test. The rats used for the test were fasted for 12 hours overnight before initiation of the test. After fasting, the samples to be tested as the food intake regulator were dissolved in saline and the dissolved test samples were intravenously given (150 μg/body) to the rats, respectively, in the treatment group and, then, their food intakes were measured 1, 2, 4, and […] administration. In contrast, in the control group, saline was intravenously given and their food intakes were measured in the same way.

GRVYRPCWQV [SEQ ID NO: 34]
food intake regulation activity: no food intake regulation activity

— US8283311B2, “Peptide-containing food intake regulator” (Maruha Nichiro Foods, Inc., priority 2008, dated 2012)
